In one assay the target is T1, HER-2 (Homo sapiens, UniProt P04626).
T1 construct: the nucleotides encoding amino acids 679 to 1255 of HER-2; HIS6-Thrombin (His6 tag and thrombin site) (N); purchased Proqinase (Freiburg, Germany)
T1 sequence (P04626 679-1255): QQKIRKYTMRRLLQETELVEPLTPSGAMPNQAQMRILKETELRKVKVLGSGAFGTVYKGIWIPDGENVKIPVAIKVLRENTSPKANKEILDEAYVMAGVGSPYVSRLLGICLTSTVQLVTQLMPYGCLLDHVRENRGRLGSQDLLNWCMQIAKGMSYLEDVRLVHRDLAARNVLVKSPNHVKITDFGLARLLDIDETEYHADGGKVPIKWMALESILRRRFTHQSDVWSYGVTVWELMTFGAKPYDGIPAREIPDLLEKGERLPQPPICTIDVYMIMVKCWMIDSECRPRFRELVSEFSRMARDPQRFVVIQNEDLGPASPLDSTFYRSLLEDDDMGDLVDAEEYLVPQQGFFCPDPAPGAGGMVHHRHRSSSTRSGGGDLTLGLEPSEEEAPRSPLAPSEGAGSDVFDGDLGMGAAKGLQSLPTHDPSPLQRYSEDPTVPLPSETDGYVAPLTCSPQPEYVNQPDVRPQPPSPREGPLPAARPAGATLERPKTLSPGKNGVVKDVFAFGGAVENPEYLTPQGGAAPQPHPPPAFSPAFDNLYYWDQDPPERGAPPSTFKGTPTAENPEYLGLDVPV
The assay can be described thus: HER-2 Kinase Assay. The following applies: GST-HER2, 1 μM ATP. The class given is biochemical. As to the method:
HER-2 kinase was purified at Proqinase (Freiburg, Germany) from a construct that consisted of a fusion of GST (Glutathione-S-Transferase), HIS6-Thrombin and the nucleotides encoding amino acids 679 to 1255 of HER-2.
A mixture of a 10× kinase reaction buffer (600 mM Hepes at pH 7.5, 30 mM Magnesium Chloride, 0.03 mM Sodium Vanadate and 500 μg/mL PEG 20,000), DTT (1.2 mM final from a 10 mM stock), ATP (1 μM from a 10 mM stock), biotinylated polyGluTyr (1.5 ng/μL final from stock of 1 μg/μL prepared by Upstate Biotechnologies, Lake Placid, N.Y.), Manganese Chloride (3 mM final from a 1 M stock), γ-^33P-ATP (10 μCi/μL stock) and water (70 μL/well) was added to each well of a Streptavidin Flashplate (Cat. # SMP103, NEN, Boston, Mass.).
Test compound stock (1 μL) was added to the appropriate wells. Diluted GSTHER2 kinase (6.7 ng/μL diluted into 50 mM Tris-HCl at pH 8.0 and 0.1% bovine serum albumin) (30 μL) was added (total volume of 200 ng/well) to initiate the reactions.
The reaction plates were incubated at 30° C. for 1 hr. The reaction was terminated by aspirating the reaction mixture from the plate wells and washing the wells three times with a 1×PBS stop buffer (300 μL) and 100 mM EDTA. After the final wash, the same stop buffer (200 μL) was again added to the wells. The plates were then sealed and read on the TopCount scintillation counter. The IC50 was derived according to the procedure described in Example 1.
For orientation: IC50 means the point on the concentration scale where inhibition reaches its midpoint. Read a low IC50 as greater potency. On to `Cc1cc2c(F)c(Oc3ncnc4sc(C(=O)NCCN5CCOCC5)c(C)c34)ccc2[nH]1` [Cpd 19, 4-(4-fluoro-2-methyl-1H-indol-5-yloxy)-5-methyl-thieno[2,3-d]pyrimidine-6-carboxylic acid (2-morpholin-4-yl-ethyl)-amide], for which the IC50 was greater than 100 µM. Take `Cc1cc2c(F)c(Oc3ncnc4sc(C(=O)Nc5ccc(CN6CCOCC6)cc5)c(C)c34)ccc2[nH]1` [Cpd 20, 4-(4-fluoro-2-methyl-1H-indol-5-yloxy)-5-methyl-thieno[2,3-d]pyrimidine-6-carboxylic acid (4-morpholin-4-ylmethyl-phenyl)-amide]: the IC50 was greater than 100 µM. Compound `Cc1cc2c(F)c(Oc3ncnc4sc(C(=O)NCCN5CCCCC5)c(C)c34)ccc2[nH]1` [Cpd 21, 4-(4-fluoro-2-methyl-1H-indol-5-yloxy)-5-methyl-thieno[2,3-d]pyrimidine-6-carboxylic acid (2-piperidin-1-yl-ethyl)-amide] came in with an IC50 greater than 100 µM. With `Cc1cc2c(F)c(Oc3ncnc4sc(C(=O)NCCN5CCCC5)c(C)c34)ccc2[nH]1` [Cpd 22, 4-(4-fluoro-2-methyl-1H-indol-5-yloxy)-5-methyl-thieno[2,3-d]pyrimidine-6-carboxylic acid (2-pyrrolidin-1-yl-ethyl)-amide], the IC50 was greater than 100 µM. As for `Cc1c(C(=O)Nc2ccc(CN3CCOCC3)cc2)sc2ncnc(Nc3ccc(Oc4ccccc4)cc3)c12` [Cpd 23, 5-methyl-4-(4-phenoxy-phenylamino)-thieno[2,3-d]pyrimidine-6-carboxylic acid (4-morpholin-4-ylmethyl-phenyl)-amide], the IC50 was greater than 100 µM. Same read-out and setting: to `Cc1c(C(=O)NCCN2CCOCC2)sc2ncnc(Nc3ccc(Oc4ccccc4)cc3)c12` [Cpd 24] belongs greater than 10 µM.

Turning to `COCCNC(=O)c1sc2ncnc(Oc3ccc4[nH]c(C)cc4c3F)c2c1C` [Cpd 27, 4-(4-fluoro-2-methyl-1H-indol-5-yloxy)-5-methyl-thieno[2,3-d]pyrimidine-6-carboxylic acid (2-methoxy-ethyl)-amide], the half-inhibitory concentration (IC50) was greater than 10 µM.

The target in another assay is T2, EGFR (Homo sapiens, UniProt P00533).
T2 construct: The intracellular portion of EGFR started at nucleotide 2189 (corresponding to amino acid 667) and ended at the termination codon; made in house; host or cells: Sf9 insect cells (baculovirus)
T2 sequence (P00533 669-1210 limits assumed): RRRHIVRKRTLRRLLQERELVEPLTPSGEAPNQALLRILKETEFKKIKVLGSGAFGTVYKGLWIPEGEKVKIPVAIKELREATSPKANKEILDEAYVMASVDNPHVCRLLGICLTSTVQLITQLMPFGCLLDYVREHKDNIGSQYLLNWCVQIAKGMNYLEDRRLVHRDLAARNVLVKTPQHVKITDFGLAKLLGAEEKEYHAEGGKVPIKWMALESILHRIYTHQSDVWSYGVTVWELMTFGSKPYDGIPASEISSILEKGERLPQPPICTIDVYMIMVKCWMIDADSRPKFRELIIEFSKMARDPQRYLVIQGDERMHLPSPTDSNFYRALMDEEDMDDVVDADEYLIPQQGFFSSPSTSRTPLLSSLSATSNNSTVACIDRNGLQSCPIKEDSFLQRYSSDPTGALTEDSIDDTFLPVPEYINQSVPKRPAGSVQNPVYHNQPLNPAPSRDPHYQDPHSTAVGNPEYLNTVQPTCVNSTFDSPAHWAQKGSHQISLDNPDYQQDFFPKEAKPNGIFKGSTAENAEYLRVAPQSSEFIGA
The assay can be described thus: EGFR Kinase Assay. The settings on record: test concentration of 2 μM (compounds without an IC50); read-out: EGFR percent inhibition. The class given is biochemical. The text has this: The EGFR kinase used was a fusion of Glutathione-S-Transferase (GST) and a PCR amplified intracellular portion of EGFR (NM_005228). The intracellular portion of EGFR started at nucleotide 2189 (corresponding to amino acid 667) and ended at the termination codon. The portion was PCR amplified with primers that added the lambda attB sequences to each end, recombined into an entry vector, then into a GST destination vector (as described in Gateway Technologies Manual by Invitrogen Corporation, Carlsbad, Calif.).
The destination vector was recombined in the DH10BAC strain of bacteria to produce a bacmid. The bacmid was transfected into Sf 9 cells and the supernatant containing the baculovirus was collected. The GSTEGFR protein was purified using large cultures of Sf 9 cells infected with stock virus. After an appropriate period of time, the cells were collected and lysed. The GSTEGFR was then purified from the lysate on Glutathione-Sepharose columns (as described by Amersham Biosciences, Buckinghamshire, United Kingdom).
The EGFR substrate was prepared by biotinylating polyGluTyr (128 mg) (Sigma, St. Louis, Mo.) in a 1×PBS buffer incubated together with a 12-fold molar excess of Sulfo-NHS-LC-Biotin on ice for at least 2 hrs. The free biotin was separated from the biotinylated polyGluTyr on a gel filtration column.
A mixture of a 10× kinase buffer (500 mM Tris at pH 8.0, 100 mM Magnesium Chloride and 1 mM Sodium Vanadate), DTT (1 mM final from 500 mM stock), ATP (5 μM final from 10 mM stock), biotinylated polyGluTyr (10 μg/μL stock), γ-^33P ATP (10 μCi/μL stock) and water was added to each well (90 μL/well) of a Streptavidin Flashplate (Perkin Elmer, Wellesley, M A).
Test compound in 100% DMSO (2 μL) was added to the appropriate wells. Diluted GSTEGFR (1:300 dilution in 50 mM Tris at pH 8.0 and 0.1% bovine serum albumin) (10 μL) was added to the wells to initiate the reactions.
The plates were incubated at 30° C. for 1 hr with shaking. The reacted contents were removed and the plates were sequentially washed three times with a 1×PBS stop buffer (300 μL without Magnesium and Calcium) and 100 mM EDTA. After the final wash, the same stop buffer (200 μL) was added to the wells. The plates were then sealed and read on the TopCount scintillation counter.
Test compounds were assayed in triplicate at 16 concentrations at half-log dilutions starting at 200 uM. A maximum and minimum signal for the assay was determined on each plate. The percent inhibition of a test compound was calculated according to the formula
For a series of test concentrations, the IC50 was derived by graphing percent inhibition against the log of the concentrations tested for a given compound. For those compounds without an IC50, the percent inhibition results are shown at a test concentration of 2 μM.
A word on the inhibition: it is the drop in the measured response relative to a control, in per cent. For `Cc1cc2c(F)c(Oc3ncnc4sc(C(=O)NCCN5CCOCC5)c(C)c34)ccc2[nH]1` [Cpd 19, 4-(4-fluoro-2-methyl-1H-indol-5-yloxy)-5-methyl-thieno[2,3-d]pyrimidine-6-carboxylic acid (2-morpholin-4-yl-ethyl)-amide], the inhibition at 2 µM is 10%.

Values taken from patent publication US20080108611A1, “SUBSTITUTED THIENOPYRIMIDINE KINASE INHIBITORS” (priority 2006, published 2008).
